Experimental data: patent US9206200B2, “N-linked lactam M1 receptor positive allosteric mogulators” (Merck Sharp & Dohme Corp., priority 2011, dated 2015)

These compounds were tested against T1, acetylcholine muscarinic M1 receptor (Homo sapiens, UniProt P11229) (assay: muscarinic FLIPR assay: intracellular calcium in CHOnfat/hM1 cells, potentiation of EC20 acetylcholine). Settings: Table 1; CHOnfat/hM1 cells, FLIPR, EC20 acetylcholine (3 nM final); read-out: M1 Pot.
T1 construct: expressed in transfected cells; host or cells: CHOnfat cells (CHO cells with an NFAT reporter) expressing hM1, kept under Geneticin selection
T1 sequence (P11229 1-460): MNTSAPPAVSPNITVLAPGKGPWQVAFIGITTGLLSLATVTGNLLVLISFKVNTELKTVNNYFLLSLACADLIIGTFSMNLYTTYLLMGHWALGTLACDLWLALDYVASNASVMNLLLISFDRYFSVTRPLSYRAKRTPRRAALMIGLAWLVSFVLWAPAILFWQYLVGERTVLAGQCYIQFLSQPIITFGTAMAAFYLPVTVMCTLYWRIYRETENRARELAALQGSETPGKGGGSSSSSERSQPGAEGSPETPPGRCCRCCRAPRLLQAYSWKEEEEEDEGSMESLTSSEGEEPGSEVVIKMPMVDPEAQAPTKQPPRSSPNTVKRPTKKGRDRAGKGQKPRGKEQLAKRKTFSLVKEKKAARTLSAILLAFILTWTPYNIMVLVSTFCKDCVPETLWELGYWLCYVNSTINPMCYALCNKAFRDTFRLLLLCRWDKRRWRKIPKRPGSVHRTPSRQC
Format: cell-based
Experimental: The assay studies the effect of one or several concentrations of test compounds on basal or acetylcholine-stimulated Ca^2+ levels using FLIPR.
Compounds are prepared and subjected to a preincubation period of […]. Thereafter, a single EC20 concentration of acetylcholine is added to each well (3 nM final). The intracellular Ca^2+ level of each sample is measured and compared to an acetylcholine control to determine any modulatory activity.
Cells: CHOnfat/hM1, hM2, hM3 or hM4 cells are plated 24 hr before the assay at a density of 18,000 cells/well (100 μL) in a 384 well plate. CHOnfat/hM1 and CHOnfat/hM3 Growth Medium: 90% DMEM (Hi Glucose); 10% HI FBS; 2 mM L-glutamine; 0.1 mM NEAA; Pen-Strep; and 1 mg/ml Geneticin, are added. For M2Gqi5CHOnfat and M4Gqi5CHOnfat cells, an additional 600 ug/ml hygromycin is added.
Equipment: 384 well plate, 120 μl, addition plate; 96-well Whatman 2 ml Uniplate Incubator, 37° C., 5% CO2; Skatron EMBLA-384 Plate Washer; Multimek Pipetting System; Genesis Freedom 200 System; Mosquito System; Temo Nanolitre Pipetting System; and FLIPR^384 Fluorometric Imaging Plate Reader System are used.
Buffers. Assay Buffer: Hanks Balanced Salt Solution, with 20 mM Hepes, 2.5 mM Probenecid (Sigma P-8761) first dissolved in 1 N NaOH, 1% Bovine Serum Albumin (Sigma A-9647). Dye Loading Buffer: Assay Buffer plus 1% Fetal Bovine Serum and Fluo-4AM/Pluronic Acid Mixture. 2 mM Fluo-4AM ester stock in DMSO (Molecular Probes F-14202) Concentration of 2 μM in buffer for a final concentration of 1 μM in Assay. 20% Pluronic Acid Solution stock, with concentration of 0.04% in Buffer, 0.02% in Assay.
65 μL of 2 mM Fluo-4AM are mixed with 130 μL of 20% Pluronic Acid. The resulting solution and 650 μL FBS is added to the assay buffer for a total volume of 65 mL. Positive Controls: 4-Br-A23187: 10 mM in DMSO; final concentration 10 μM. Acetylcholine: 10 mM in water, working stock at both 20 μM and 30 μM in assay buffer, final concentration of 10 μM. This is used to check the maximum stimulation of the CHOK1/hM1 cells. 20 μM (2×) acetylcholine is added in the preincubation part of the assay, and the 30 μM (3×) stock is added in the second part. (EC20)Acetylcholine: 10 mM in water, working stock of 9 nM (3×), and final concentration in assay is 3 nM. This is used after the preincubation with test compounds. Addition of the EC20 Acetylcholine to each well with a test compound will ascertain any modulator activity. 24 wells contain 3 nM Acetylcholine alone as a control.
Determining Activity of Putative Compounds:
Screening Plate Compounds are titrated in 96-well plates (columns 2-11), 100% DMSO, started at a concentration of 15 mM (150× stock concentration), and 3-fold serial dilutions using Genesis Freedom200 System. Four 96-well plates are combined into a 384-well plate using Mosquito Nanolitre Pipetting System by transferring 1 μl of serial diluted compounds to each well, and 1 mM acetylcholine (100× stock concentration) were added as a control. Using Temo, 49 μl assay buffer is added to each well of the 384-well plate right before assay.
In a 96-well Whatman 2 ml Uniplate, 9 nM Acetylcholine (3×) is pipetted into wells corresponding to the screening compounds, and into control wells. The 30 μM acetylcholine control (3×) is added into control wells, and the 3× agonist plate is transferred into a 384 well plate.
Cells are washed three times with 100 μL of buffer, leaving […] of buffer in each well. Using Multimek, 30 μL of Dye Loading Buffer is added into each well and incubated at 37° C., 5% CO2 for up to one hr.
After 60 min, the cells are washed three times with 100 μL of buffer, leaving 30 μL of buffer in each well. The cell plate, screening plate, and agonist addition plates are placed on the platform in the FLIPR and the door closed. A signal test to check background fluorescence and basal fluorescence signal is performed. Laser intensity is adjusted if necessary.

Row | SMILES | EC50 [nM]
1 | O=C1c2cc(CN3CCN(CC(F)(F)F)CC3)c3ccccc3c2CN1C1CCCCC1O (centres unmarked) [Example 34, 2-(2-hydroxycyclohexyl)-5-{[4-(2,2,2-trifluoroethyl)piperazin-1-yl]methyl}-1,2-dihydro-3H-benzo[e]isoindol-3-one] | 1900
2 | O=C1c2cc(CN3CCCC(F)(F)C3)c3ccccc3c2CN1C1CCCCC1O (centres unmarked) [Example 18, 5-[(3,3-difluoropiperidin-1-yl)methyl]-2-(2-hydroxycyclohexyl)-1,2-dihydro-3H-benzo[e]isoindol-3-one] | 160
3 | O=C1c2cc(CN3CCC(F)CC3)c3ccccc3c2CN1C1CCCCC1O (centres unmarked) [Example 26, 5-[(4-fluoropiperidin-1-yl)methyl]-2-(2-hydroxycyclohexyl)-1,2-dihydro-3H-benzo[e]isoindol-3-one] | 160
4 | N#CC1(c2ccccc2Cl)CCN(Cc2cc3c(c4ccccc24)CN([C@H]2CCCC[C@@H]2O)C3=O)CC1 [Example 59, 4-(2-chlorophenyl)-1-({2-[(1S,2S)-2-hydroxycyclohexyl]-3-oxo-2,3-dihydro-1H-benzo[e]isoindol-5-yl}methyl)piperidine-4-carbonitrile] | 46
5 | N#CC1(F)CCN(Cc2cc3c(c4ccccc24)CN([C@H]2CCCC[C@@H]2O)C3=O)CC1 [Example 19, 4-fluoro-1-({2-[(1S,2S)-2-hydroxycyclohexyl]-3-oxo-2,3-dihydro-1H-benzo[e]isoindol-5-yl}methyl)piperidine-4-carbonitrile] | 37
6 | CC1c2c(cc(CN3CCN(c4ccccc4)CC3)c3ccccc23)C(=O)N1[C@@H]1CCCC[C@@H]1O (stereo partly drawn) [Example 73, 2-[(1R,2S)-2-hydroxycyclohexyl]-1-methyl-5-[(4-phenylpiperazin-1-yl)methyl]-1,2-dihydro-3H-benzo[e]isoindol-3-one] | 198
7 | N#CC1(c2ccccc2F)CCN(Cc2cc3c(c4ccccc24)CN([C@@H]2CCCC[C@@H]2O)C3=O)CC1 [Example 60, 4-(2-fluorophenyl)-1-({2-[(1R,2S)-2-hydroxycyclohexyl]-3-oxo-2,3-dihydro-1H-benzo[e]isoindol-5-yl}methyl)piperidine-4-carbonitrile] | 44
8 | CC1CCCN(Cc2cc3c(c4ccccc24)CN(C2CCCCC2O)C3=O)C1 (centres unmarked) [Example 16, 2-(2-hydroxycyclohexyl)-5-[(3-methylpiperidin-1-yl)methyl]-1,2-dihydro-3H-benzo[e]isoindol-3-one] | 7800
9 | O=C1c2cc(CN3CC[C@H](F)C3)c3ccccc3c2CN1C1CCCCC1O (stereo partly drawn) [Example 32, 5-{[(3S)-3-fluoropyrrolidin-1-yl]methyl}-2-(2-hydroxycyclohexyl) 1,2-dihydro-3H-benzo[e]isoindol-3-one] | 1800
10 | O=C1c2cc(CN3CCC4(CC3)COc3ccccc34)c3ccccc3c2CN1C1CCCCC1O (centres unmarked) [Example 40, 2-(2-hydroxycyclohexyl)-5-(1′H-spiro[1-benzofuran-3,4′-piperidin]-1′-ylmethyl)-1,2-dihydro-3H-benzo[e]isoindol-3-one] | 720
11 | N#CC1(c2cccnn2)CCN(Cc2cc3c(c4ccccc24)CN([C@H]2CCCC[C@@H]2O)C3=O)CC1 [Example 52, 1-({2-[(1S,2S)-2-hydroxycyclohexyl]-3-oxo-2,3-dihydro-1H-benzo[e]isoindol-5-yl}methyl)-4-(pyridazin-3-yl)piperidine-4-carbonitrile] | 27
12 | O=C1c2cc(CN3CCN(c4ccncc4)CC3)c3ccccc3c2CN1[C@H]1CCCC[C@@H]1O [Example 77, 2-[(1S,2S)-2-hydroxycyclohexyl]-5-[(4-pyridin-4-ylpiperazin-1-yl)methyl]-1,2-dihydro-3H-benzo[e]isoindol-3-one] | 213

Same assay, conditions: Table 2; CHOnfat/hM1 cells, FLIPR, EC20 acetylcholine (3 nM final); read-out: M1 Pot.

Row | SMILES | EC50 [nM]
13 | COc1cccc(C2(C#N)CCN(Cc3cc4c(c5ncccc35)CN([C@H]3CCCC[C@@H]3O)C4=O)CC2)n1 [Example 154, 1-({8-[(1S,2S)-2-hydroxycyclohexyl]-7-oxo-8,9-dihydro-7H-pyrrolo[3,4-h]quinolin-5-yl}methyl)-4-(6-methoxypyridin-2-yl)piperidine-4-carbonitrile] | 19
14 | CCC1c2c(cc(CN3CCC(F)(C#N)CC3)c3cccnc23)C(=O)N1[C@@H]1CCCC[C@@H]1O (stereo partly drawn) [Example 120, 1-({9-ethyl-8-[(1R,2S)-2-hydroxycyclohexyl]-7-oxo-8,9-dihydro-7H-pyrrolo[3,4-h]quinolin-5-yl}methyl)-4-fluoropiperidine-4-carbonitrile] | 21
15 | O=C1c2cc(CN3CCC(F)(C#CC4CC4)CC3)c3cccnc3c2CN1[C@H]1CCCC[C@@H]1O [Example 132, 5-{[4-(cyclopropylethynyl)-4-fluoropiperidin-1-yl]methyl}-8-[(1S,2S)-2-hydroxycyclohexyl]-8,9-dihydro-7H-pyrrolo[3,4-h]quinolin-7-one] | 246
16 | N#CC1(c2ccccc2)CCN(Cc2cc3c(c4ncccc24)CN([C@H]2CCCC[C@@H]2O)C3=O)CC1 [Example 136, 1-({8-[(1S,2S)-2-hydroxycyclohexyl]-7-oxo-8,9-dihydro-7H-pyrrolo[3,4-h]quinolin-5-yl}methyl)-4-phenylpiperidine-4-carbonitrile] | 14
17 | CC1c2c(cc(CN3CCC(C#N)(c4ccccc4)CC3)c3cccnc23)C(=O)N1C1CCCCC1O (centres unmarked) [Example 138, 1-{[8-(2-hydroxycyclohexyl)-9-methyl-7-oxo-8,9-dihydro-7H-pyrrolo[3,4-h]quinolin-5-yl]methyl}-4-phenylpiperidine-4-carbonitrile] | 69
18 | CC1c2c(cc(CN3CCN(c4cnn(C)c4)CC3)c3cccnc23)C(=O)N1C1CCCCC1O (centres unmarked) [Example 158, 8-(2-hydroxycyclohexyl)-9-methyl-5-{[4-(1-methyl-1H-pyrazol-4-yl)piperazin-1-yl]methyl}-8,9-dihydro-7H-pyrrolo[3,4-h]quinolin-7-one] | 70
19 | C[C@@H]1c2c(cc(CN3CCC(F)(c4ccccn4)CC3)c3cccnc23)C(=O)N1[C@H]1CCCC[C@@H]1O [Example 153, (9R)-5-[(4-fluoro-4-pyridin-2-ylpiperidin-1-yl)methyl]-8-[(1S,2S)-2-hydroxycyclohexyl]-9-methyl-8,9-dihydro-7H-pyrrolo[3,4-h]quinolin-7-one] | 8

Same assay, conditions: Table 3; inflection point calculated from the FLIPR values; EC20 acetylcholine (3 nM final); read-out: IP Value

Row | SMILES | EC50 [nM]
20 | C=CC1(F)CCN(Cc2cc3c(c4ncccc24)CN([C@H]2CCCC[C@@H]2O)C3=O)CC1 [Example 9, 5-[(4-Ethenyl-4-fluoropiperidin-1-yl)methyl]-8-[(1S,2S)-2-hydroxycyclohexyl]-8,9-dihydro-7H-pyrrolo[3,4-h]quinolin-7-one] | 420
